Reference: US4994488A, “Novel imidate insecticides” (ICI Americas Inc., priority 1989, dated 1991)

Assays:
Type in all cases: in vivo
[1] = test system: Western Spotted Cucumber Beetle Larvae [Diabrotica undecimpunctata undecimpunctata (Mannherheim)]; test: Western spotted cucumber beetle larvae soil test (Diabrotica); conditions: ppm of test compound in the soil
Procedure: (§1) The compounds in Table 1 above were tested for insecticidal activity using the following testing procedures. LC50 values, based on the results of these tests and calculated according to dosage-mortality curves, are expressed in Table 2.
Western Spotted Cucumber Beetle Larvae[Diabrotica undecimpunctata undecimpunctata (Mannherheim)]
Ten grams of moist potting soil was placed in a plastic cup. The test compound was dissolved in acetone. A 0.05 ml aliquot of the test sample, diluted to the desired concentration, was added to the soil. The cup was capped and the soil was mixed on a vortex mixer for approximately 15 seconds. An indentation was made on the surface of the soil and approximately 50 Diabrotica eggs were added. The eggs were covered with soil and maintained at room temperature (approximately 70° F. or 21° C.). Four days later a section of Romaine lettuce (Latuca sativa) leaf was placed in the treated cups. One week later the cups were examined for live larvae. TEst concentrations ranged from 25 ppm downward. The LC-50 value is expressed below in Table 2 under the heading "Diabrotica" in terms of ppm of the test compound in the soil.

[2] = test system: Tobacco Budworm [Heliothis virescens (Fabricius)], larvae; test: Tobacco budworm contact test, larvae (TBW-C); conditions: percent of test compound in solution; second-instar larvae; 5 days
Procedure: as §1
(§2) Tobacco Budworm [Heliothis virescens (Fabricius)]
(a) Contact: Test compounds were diluted in a 50--50 acetonewater solution. Cotton (Gossypium sp.) cotyledons were immersed in the test solutions for 2-3 seconds and placed on a wire screen to dry. The dried leaves were placed in petri dishes containing a moistened piece of filter paper and infested with 5 second-instar tobacco budworm larvae. The dishes were placed in a high humidity chamber for 5 days, and percent mortality of the larvae recorded. Test concentrations ranged from 0.1% downward. The LC-50 values are expressed below in Table 2 under the heading "TBW-C" in terms of percent of the test compound in the solution.

[3] = test system: two-spotted mite [Tetranychus urticae (Koch)], eggs; test: Two-spotted mite acaricidal test, eggs (2SM-E); conditions: percent of test compound in solution; nymphs hatching from eggs; 5-7 days
Procedure: as §1
(§3) Acaricidal Evaluation Test
(§4) The two-spotted mite (2SM) [Tetranychus urticae (Koch)]was employed in tests for miticides. The test procedure was as follows:
(§5) Pinto bean plants (Phaseolus sp.), approximately 10 cm tall, were transplanted into sandy loam soil in small cups and thoroughly infested with two-spotted mites of mixed ages and sexes. Twenty-four hours later the infested plants were inverted and dipped for 2-3 seconds in 50--50 acetone-water solutions of the test compound. Treated plants were held in the greenhouse, and 5-7 days later mortality was determined for both adult mites and the nymphs hatching from eggs which were on the plants at the time of treatment. Test concentrations ranged from 0.05% downward. The LC-50 value is expressed below in Table 2 under the headings "2SM-A" (i.e., adults) and "2SM-E" (i.e. eggs) in terms of percent concentration of the test compound in the solution.

[4] = test system: Tobacco Budworm [Heliothis virescens (Fabricius)], eggs; test: Tobacco budworm egg test (TBW-E); conditions: percent of test compound in solution; 2-day old eggs
Procedure: The compounds in Table 1 above were tested for insecticidal activity using the following testing procedures.
as §2
(b). Eggs: Paper towel patches of 2-day old eggs of the tobacco budworm were dipped in acetone solutions of the test compound and placed in petri dishes containing a portion of larval rearing medium. […] Test concentrations ranged from 0.1% downward. The LC-50 value is expressed below in Table 2 under the heading "TBW-E" in terms of percent of the test compound in the solution.

[5] = test system: Beet Armyworm (Spodoptera exigua); test: Beet armyworm test (BAW); conditions: percent of test compound in solution; second-instar larvae; five days
Procedure: as §1
Beet Armyworm (Spodoptera exigua)
Test compounds were diluted in a 50--50 acetone-water solution. Young leaves of sugar beets (Beta vulgaris) were immersed in the test solutions for 2-3 seconds and placed on a wire screen to dry. The dried leaves were placed in petri dishes containing a moistened filter paper and infested with five second-instar beet armyworm larvae. The dishes were placed in a high humidity chamber. Mortality of the larvae was recorded five days later. Test concentrations ranged from 0.1% downward. The LC-50 values are expressed below in Table 2 under the heading "BAW" in terms of percent of the test compound in solution.

[6] = test system: two-spotted mite [Tetranychus urticae (Koch)], adults; test: Two-spotted mite acaricidal test, adults (2SM-A); conditions: percent of test compound in solution, 5-7 days
Procedure: as §1, §3, §4, §5

Structure (SMILES)	LC50 Diabrotica [1]	LC50 TBW C (contact) [2] [%]	LC50 2-SM E (eggs) [3] [%]	LC50 TBW E (eggs) [4] [%]	LC50 BAW [5] [%]	LC50 2-SM A (adults) [6] [%]
CC1(C(=Nc2ccc(Cl)cc2)OCc2cccc(Oc3ccccc3)c2)CC1 [Compound 1]	> 25 ppm (soil)	0.008	> 0.05	0.05	0.025	> 0.05
CC1CC1C(=Nc1ccc(Cl)cc1)OCc1cccc(Oc2ccccc2)c1 (stereo not drawn) [Compound 2]	> 25 ppm (soil)	–	> 0.05	> 0.01	–	> 0.05
Clc1cccc(N=C(OCc2cccc(Oc3ccccc3)c2)C2CC2)c1 [Compound 3]	> 25 ppm (soil)	–	> 0.05	0.1	–	> 0.05
Clc1ccc(N=C(OCc2cccc(Oc3ccccc3)c2)C2CC2)cc1 [Compound 4, N-(4-Chlorophenyl)-O-(3-phenoxybenzyl)cyclopropylcarboximidate]	> 25 ppm (soil)	0.006	0.05	0.1	–	0.01
Fc1ccc(N=C(OCc2cccc(Oc3ccccc3)c2)C2CC2)cc1 [Compound 5]	> 25 ppm (soil)	0.01	0.05	0.08	–	0.05
FC(F)(F)c1ccc(N=C(OCc2cccc(Oc3ccccc3)c2)C2CC2)cc1 [Compound 6]	25 ppm (soil)	0.0015	> 0.05	0.025	–	0.01
FC(F)(F)Oc1ccc(N=C(OCc2cccc(Oc3ccccc3)c2)C2CC2)cc1 [Compound 7]	17 ppm (soil)	0.001	0.01	0.05	–	0.01
FC(F)(F)c1ccc(N=C(OCc2cccc(Oc3ccccc3)c2)C2CC2)c(Cl)c1 [Compound 8]	25 ppm (soil)	0.1	> 0.05	> 0.1	–	> 0.05
